The text below walks through data of US11427553B2, “Dihydrooxadiazinones” (Bayer Aktiengesellschaft, priority 2017, dated 2022).

pIC50: −log10 of the molar value. Some results are limits rather than exact numbers.

One assay addresses human full length PDE3B (Homo sapiens (Human), UniProt Q13370). In words: Assay 5 PDE3B enzyme inhibition (3H-cAMP SPA). Type of assay: biochemical. Particulars: Sf9 cell extract. The essentials: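 Hydrolysis of tritiated cAMP by Sf9-expressed full-length human PDE3B proceeded 60 min at room temperature in Tris buffer pH 7.5 containing Mg2+, EDTA and BSA, with enzyme dilution keeping substrate consumption below 70%. IC50 derived from percent activity versus log compound concentration.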

A further assay has as its system HeLa cells. In words: Assay 1 cell proliferation measurement (CTG, 72 h), HeLa. Type of assay: cell-based, human. Conditions: Homo sapiens, HeLa; Assay 1, 72 h, Cell Titer Glo; read-out: HeLa IC50 [nM] (Cervical cancer). The essentials: (§1)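 Cells were plated, grown overnight at 37 °C, then treated 72 h with a 10-step 2.5-fold dilution series from 100 nM maximum final (0.3% DMSO vehicle). Viability was read by CellTiter-Glo luminescence. IC50 from a 4-parameter fit, normalised to a 0 h plate (maximum inhibition) and DMSO control (minimum inhibition).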
(In general: In ATP-based viability assays light output follows the ATP content of the culture.)

Another assay has as its target human full length PDE3A (Homo sapiens (Human), UniProt Q14432). In words: Assay 4 PDE3A enzyme inhibition (3H-cAMP SPA). The class given is biochemical. Conditions: Sf9 cell extract. The method in brief:
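In this SPA format, the 60-min room-temperature reaction used 0.025 μCi [8-3H]cAMP and diluted full-length PDE3A from Sf9 cells. Percentage activity was plotted against log compound concentration to derive IC50.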

The test system of the next assay is SK-MEL-3 cells. The assay can be described thus: Assay 1 cell proliferation measurement (CTG, 72 h), SK-MEL-3. Particulars: Homo sapiens, SK-MEL3; Assay 1, 72 h, Cell Titer Glo; read-out: SK-MEL-3 IC50 [nM] (melanoma). The class given is cell-based, human. The essentials:
as §1

Chain of human full length PDE3A (Q14432 whole entry): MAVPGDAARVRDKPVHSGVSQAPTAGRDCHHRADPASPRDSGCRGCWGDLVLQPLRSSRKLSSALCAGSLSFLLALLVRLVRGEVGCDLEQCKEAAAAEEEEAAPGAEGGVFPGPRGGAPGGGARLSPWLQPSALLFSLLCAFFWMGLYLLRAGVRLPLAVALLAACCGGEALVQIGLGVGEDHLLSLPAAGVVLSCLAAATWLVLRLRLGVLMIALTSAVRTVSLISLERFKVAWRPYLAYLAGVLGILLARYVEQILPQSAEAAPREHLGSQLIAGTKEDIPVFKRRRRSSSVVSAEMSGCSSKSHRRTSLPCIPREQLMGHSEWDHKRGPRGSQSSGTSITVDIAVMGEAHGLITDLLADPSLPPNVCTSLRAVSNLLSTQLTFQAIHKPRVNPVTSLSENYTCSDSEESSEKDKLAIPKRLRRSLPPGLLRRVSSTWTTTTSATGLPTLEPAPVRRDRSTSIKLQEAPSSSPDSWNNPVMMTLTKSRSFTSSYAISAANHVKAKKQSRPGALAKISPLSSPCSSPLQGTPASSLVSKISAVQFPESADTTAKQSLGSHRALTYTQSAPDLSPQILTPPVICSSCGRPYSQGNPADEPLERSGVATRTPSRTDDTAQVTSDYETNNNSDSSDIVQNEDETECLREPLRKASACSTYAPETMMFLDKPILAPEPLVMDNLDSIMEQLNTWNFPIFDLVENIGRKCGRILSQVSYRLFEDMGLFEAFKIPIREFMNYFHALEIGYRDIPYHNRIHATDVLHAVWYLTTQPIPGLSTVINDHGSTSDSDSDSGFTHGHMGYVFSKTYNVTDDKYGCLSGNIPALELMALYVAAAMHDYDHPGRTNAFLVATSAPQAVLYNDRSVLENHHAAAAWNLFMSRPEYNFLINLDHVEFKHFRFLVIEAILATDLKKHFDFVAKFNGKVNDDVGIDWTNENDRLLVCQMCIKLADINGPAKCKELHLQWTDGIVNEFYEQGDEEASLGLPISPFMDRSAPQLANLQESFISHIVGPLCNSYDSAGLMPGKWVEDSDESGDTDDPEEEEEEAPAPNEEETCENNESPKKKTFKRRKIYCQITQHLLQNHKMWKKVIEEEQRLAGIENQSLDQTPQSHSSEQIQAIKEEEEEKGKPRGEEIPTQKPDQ
Chain of human full length PDE3B (Q13370 whole entry): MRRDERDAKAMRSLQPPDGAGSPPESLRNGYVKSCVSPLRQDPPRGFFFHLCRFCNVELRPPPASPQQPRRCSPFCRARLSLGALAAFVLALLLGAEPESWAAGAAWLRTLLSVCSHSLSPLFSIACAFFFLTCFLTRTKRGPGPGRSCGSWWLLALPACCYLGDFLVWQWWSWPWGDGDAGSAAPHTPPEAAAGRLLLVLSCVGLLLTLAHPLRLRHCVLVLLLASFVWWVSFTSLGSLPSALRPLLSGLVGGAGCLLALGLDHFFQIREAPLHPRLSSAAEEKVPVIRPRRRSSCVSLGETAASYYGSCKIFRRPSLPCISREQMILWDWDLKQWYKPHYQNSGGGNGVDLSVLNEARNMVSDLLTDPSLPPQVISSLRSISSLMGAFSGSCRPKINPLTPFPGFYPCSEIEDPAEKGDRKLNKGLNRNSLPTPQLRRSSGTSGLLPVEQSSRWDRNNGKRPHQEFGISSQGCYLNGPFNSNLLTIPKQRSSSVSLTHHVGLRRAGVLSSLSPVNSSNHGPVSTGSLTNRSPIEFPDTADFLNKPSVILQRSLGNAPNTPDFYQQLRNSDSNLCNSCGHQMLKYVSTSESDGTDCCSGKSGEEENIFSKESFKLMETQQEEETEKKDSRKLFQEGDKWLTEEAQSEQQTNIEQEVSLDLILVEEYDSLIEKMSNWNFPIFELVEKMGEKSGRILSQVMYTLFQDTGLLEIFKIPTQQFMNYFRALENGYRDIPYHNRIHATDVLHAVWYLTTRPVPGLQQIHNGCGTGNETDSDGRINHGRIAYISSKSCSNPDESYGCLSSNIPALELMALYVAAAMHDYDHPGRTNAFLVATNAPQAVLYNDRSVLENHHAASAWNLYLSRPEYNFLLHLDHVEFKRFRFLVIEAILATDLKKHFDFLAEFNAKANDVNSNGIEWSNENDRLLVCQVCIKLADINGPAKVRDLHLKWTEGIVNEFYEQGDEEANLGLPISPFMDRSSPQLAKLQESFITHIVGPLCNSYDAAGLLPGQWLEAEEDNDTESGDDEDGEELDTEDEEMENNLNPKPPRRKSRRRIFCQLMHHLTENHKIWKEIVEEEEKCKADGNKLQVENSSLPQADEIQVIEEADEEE

As a reminder, the pIC50 is −log10 of the IC50, conventionally taken in molar units. Read a high pIC50 as a low IC50. For orientation: IC50 means the concentration that gives 50% inhibition. Turning to `O=C1NN=C(c2ccc(-c3cnsc3)c(C(F)(F)F)c2)CO1` [Example 49, 5-[4-(1,2-Thiazol-4-yl)-3-(trifluoromethyl)phenyl]-3,6-dihydro-2H-1,3,4-oxadiazin-2-one], the pIC50 at human full length PDE3B was 6.72; against human full length PDE3A it was 6.64. Also, the IC50 came to 6 nM in the assay on HeLa cells and 13 nM in the assay with SK-MEL-3 cells.
`CC(C)(N)CNc1ccc(C2=NNC(=O)OC2)cc1C(F)(F)F` [Example 321, 5-{4-[(2-amino-2-methylpropyl)amino]-3-(trifluoromethyl)phenyl}-3,6-dihydro-2H-1,3,4-oxadiazin-2-one]: the pIC50 against human full length PDE3B is 6.30; against human full length PDE3A, 6.54. In addition, the results for the IC50 in the assay with HeLa cells and with SK-MEL-3 cells were over 100 nM and 54 nM, respectively.
For the compound `C[C@@H]1OC(=O)NN=C1c1ccc(-c2cc(F)ccc2F)c(C(F)(F)F)c1` [Example 171, (6S)-5-[2′,5′-Difluoro-2-(trifluoromethyl)[1,1′-biphenyl]-4-yl]-6-methyl-3,6-dihydro-2H-1,3,4-oxadiazin-2-one], the pIC50 against human full length PDE3B was 6.68; against human full length PDE3A, 6.82. The IC50 in the assay with HeLa cells came out at 18 nM; in the assay with SK-MEL-3 cells it was 31 nM.
For `O=C1NN=C(c2ccc(-c3cc(F)ccc3F)c(C(F)(F)F)c2)CO1` [Example 59, 5-[2′,5′-Difluoro-2-(trifluoromethyl)biphenyl-4-yl]-3,6-dihydro-2H-1,3,4-oxadiazin-2-one] the same measures were 6.60, 6.82, 18 nM and 38 nM.
`O=C1NN=C(c2ccc([C@H]3CC[C@@H](O)CC3)c(C(F)(F)F)c2)CO1` [Example 273, (cis)-5-{4-[4-Hydroxycyclohexyl]-3-(trifluoromethyl)phenyl}-3,6-dihydro-2H-1,3,4-oxadiazin-2-one]: the pIC50 at human full length PDE3B was 7.28; against human full length PDE3A, 7.36. Moreover, the IC50 in the assay on HeLa cells and in the assay on SK-MEL-3 cells was 1 nM each time.
For the compound `C[C@@H]1OC(=O)NN=C1c1ccc(-c2ccc(F)cc2F)c(C(F)(F)F)c1` [Example 177, (6S)-5-[2′,4′-Difluoro-2-(trifluoromethyl)[1,1′-biphenyl]-4-yl]-6-methyl-3,6-dihydro-2H-1,3,4-oxadiazin-2-one], the pIC50 on human full length PDE3B was 6.89; against human full length PDE3A it was 6.80. Besides, the IC50 is 12 nM in the assay on HeLa cells and 17 nM in the assay with SK-MEL-3 cells.
Consider `C[C@@H]1OC(=O)NN=C1c1ccc(Cl)c(C(F)(F)F)c1` [Intermediate 74, (6S)-5-[4-chloro-3-(trifluoromethyl)phenyl]-6-methyl-3,6-dihydro-2H-1,3,4-oxadiazin-2-one], for which the negative logarithm of the IC50 (pIC50) at human full length PDE3B was 7.00; against human full length PDE3A it was 7.47. Further, the IC50 in the assay with HeLa cells was found to be 6 nM; in the assay on SK-MEL-3 cells, 11 nM.
With `Cc1ccc(-c2ccc(C3=NNC(=O)OC3)cc2C(F)(F)F)cc1O` [Example 35, 5-[3′-Hydroxy-4′-methyl-2-(trifluoromethyl)biphenyl-4-yl]-3,6-dihydro-2H-1,3,4-oxadiazin-2-one], the pIC50 was 7.12 on human full length PDE3B and 7.10 on human full length PDE3A. Further, the IC50 with HeLa cells was 39 nM; in the assay with SK-MEL-3 cells, 25 nM.
The matching figures for `Cc1ccc(-c2ccc(C3=NNC(=O)OC3)cc2F)c(C)c1` [Example 112, 5-(2-Fluoro-2′,4′-dimethyl[1,1′-biphenyl]-4-yl)-3,6-dihydro-2H-1,3,4-oxadiazin-2-one]: 6.64, 6.77, 6 nM and 10 nM.
For `N#Cc1cc(C2=NNC(=O)OC2)cc(Cl)c1N1CCOCC1` [Example 23, 3-Chloro-2-(morpholin-4-yl)-5-(2-oxo-3,6-dihydro-2H-1,3,4-oxadiazin-5-yl)benzonitrile], the negative-log IC50 (pIC50) against human full length PDE3B is 6.57; at human full length PDE3A, 6.42. Besides, the IC50 is 45 nM in the assay with HeLa cells and over 100 nM in the assay with SK-MEL-3 cells.
Consider `O=C1NN=C(c2ccc(N[C@H]3CCC[C@H]3O)c(C(F)(F)F)c2)CO1` [Example 261, 5-[4-{[(1S,2R)-2-Hydroxycyclopentyl]amino}-3-(trifluoromethyl)phenyl]-3,6-dihydro-2H-1,3,4-oxadiazin-2-one], for which the negative-log IC50 (pIC50) is 6.22 against human full length PDE3B and 6.26 against human full length PDE3A. Also, the concentration for half-maximal inhibition (IC50) in the assay on HeLa cells is 38 nM; in the assay on SK-MEL-3 cells it was over 100 nM.
For `O=C1NN=C(c2ccc(C3=CCC(O)CC3)c(C(F)(F)F)c2)CO1` (racemic) [Example 141, (rac)-5-[4′-Hydroxy-2-(trifluoromethyl)-2′,3′,4′,5′-tetrahydro[1,1′-biphenyl]-4-yl]-3,6-dihydro-2H-1,3,4-oxadiazin-2-one] the same measures were 7.57, 7.89, 2 nM and 3 nM.
For the compound `O=C1NN=C(c2ccc(C3=CCNCC3)c(C(F)(F)F)c2)CO1` [Example 328, 5-[4-(1,2,3,6-tetrahydropyridin-4-yl)-3-(trifluoromethyl)phenyl]-3,6-dihydro-2H-1,3,4-oxadiazin-2-one], the results for the pIC50 against human full length PDE3B and against human full length PDE3A were 7.04 and 7.13, respectively. Moreover, the IC50 in the assay on HeLa cells was 47 nM; in the assay on SK-MEL-3 cells it was over 100 nM.
The matching figures for `CC(C)(O)CNc1ccc(C2=NNC(=O)OC2)cc1C(F)(F)F` [Example 210, 5-{4-[(2-Hydroxy-2-methylpropyl)amino]-3-(trifluoromethyl)phenyl}-3,6-dihydro-2H-1,3,4-oxadiazin-2-one]: 6.44, 6.85, 6 nM and 8 nM.
`O=C1NN=C(c2ccc(-c3cccnc3)c(F)c2)CO1` [Example 108, 5-[3-Fluoro-4-(pyridin-3-yl)phenyl]-3,6-dihydro-2H-1,3,4-oxadiazin-2-one]: the pIC50 is 7.66 on human full length PDE3B and 7.59 against human full length PDE3A. Besides, the half-maximal inhibitory concentration (IC50) in the assay with HeLa cells worked out at 6 nM; in the assay on SK-MEL-3 cells, 13 nM.
For the compound `O=C1NN=C(c2ccc(CN3CCOCC3)c(C(F)(F)F)c2)CO1` [Example 197, 5-{4-[(Morpholin-4-yl)methyl]-3-(trifluoromethyl)phenyl}-3,6-dihydro-2H-1,3,4-oxadiazin-2-one], the figures for the pIC50 at human full length PDE3B and on human full length PDE3A were 6.10 and 6.19, respectively. Moreover, the IC50 in the assay on HeLa cells was 5 nM; with SK-MEL-3 cells, 10 nM.
`Nc1cccc(-c2ccc(C3=NNC(=O)OC3)cc2C(F)(F)F)c1F` [Example 43, 5-[3′-Amino-2′-fluoro-2-(trifluoromethyl)biphenyl-4-yl]-3,6-dihydro-2H-1,3,4-oxadiazin-2-one]: the pIC50 is 7.07 on human full length PDE3B and 7.02 against human full length PDE3A. The IC50 with HeLa cells turned out to be 34 nM; in the assay with SK-MEL-3 cells, 48 nM.
On to `N#Cc1cc(C2=NNC(=O)OC2)ccc1N1CCOCC1` [Example 22, 2-(Morpholin-4-yl)-5-(2-oxo-3,6-dihydro-2H-1,3,4-oxadiazin-5-yl)benzonitrile], for which the pIC50 at human full length PDE3B was 7.48; at human full length PDE3A it was 7.28. The 50% inhibitory concentration (IC50) in the assay on HeLa cells came to 26 nM; in the assay on SK-MEL-3 cells, 51 nM.
In the case of `O=C1NN=C(c2ccc(-c3cccc(F)c3F)c(F)c2)CO1` [Example 109, 5-(2,2′,3′-Trifluoro[1,1′-biphenyl]-4-yl)-3,6-dihydro-2H-1,3,4-oxadiazin-2-one], the pIC50 on human full length PDE3B is 7.49; against human full length PDE3A, 7.34. The concentration for half-maximal inhibition (IC50) in the assay on HeLa cells was 4 nM; in the assay on SK-MEL-3 cells it was 9 nM.
As for `O=C1NN=C(c2ccc(NC3CC(O)C3)c(C(F)(F)F)c2)CO1` (mixture of isomers) [Example 206, (cis/trans)-5-[4-{[3-hydroxycyclobutyl]amino}-3-(trifluoromethyl)phenyl]-3,6-dihydro-2H-1,3,4-oxadiazin-2-one], the negative logarithm of the IC50 (pIC50) is 7.70 on human full length PDE3B and 7.82 against human full length PDE3A. The IC50 in the assay on HeLa cells came to 0.5 nM; with SK-MEL-3 cells it was 1 nM.
For `O=C1NN=C(c2ccc(NC[C@H](O)C(F)(F)F)c(C(F)(F)F)c2)CO1` [Example 209, 5-[4-{[3,3,3-Trifluoro-(2S)-hydroxypropyl]amino}-3-(trifluoromethyl)phenyl]-3,6-dihydro-2H-1,3,4-oxadiazin-2-one] the same measures were 6.27, 6.56, 7 nM and 7 nM.
`O=C1NN=C(c2ccc(-c3ccc(F)c(F)c3F)c(F)c2)CO1` [Example 99, 5-(2,2′,3′,4′-Tetrafluoro[1,1′-biphenyl]-4-yl)-3,6-dihydro-2H-1,3,4-oxadiazin-2-one]: the pIC50 against human full length PDE3B was 7.00; against human full length PDE3A it was 7.06. Besides, the IC50 with HeLa cells is 5 nM; in the assay with SK-MEL-3 cells, 11 nM.
For the compound `Cc1cnccc1-c1ccc(C2=NNC(=O)O[C@H]2C)cc1C(F)(F)F` [Example 183, (6S)-6-Methyl-5-[4-(3-methylpyridin-4-yl)-3-(trifluoromethyl)phenyl]-3,6-dihydro-2H-1,3,4-oxadiazin-2-one], the values for the negative-log IC50 (pIC50) at human full length PDE3B and against human full length PDE3A were 6.77 and 6.70, respectively. In addition, the 50% inhibitory concentration (IC50) was 15 nM in the assay on HeLa cells and 22 nM with SK-MEL-3 cells.
On to `O=C1NN=C(c2ccc(N3CCC(F)CC3)c(F)c2)CO1` [Example 6, 5-[3-Fluoro-4-(4-fluoropiperidin-1-yl)phenyl]-3,6-dihydro-2H-1,3,4-oxadiazin-2-one], for which the negative-log IC50 (pIC50) is 6.96 on human full length PDE3B and 7.00 against human full length PDE3A. For the same compound, the figures for the concentration for half-maximal inhibition (IC50) with HeLa cells and in the assay on SK-MEL-3 cells were 5 nM and 9 nM, respectively.
